Test results from patent US9642829B2, “Antifungal compound and uses thereof” (The University of Hong Kong, priority 2012, dated 2017).

Experiments:
C. albicans biofilms = assay: Mono species Candida biofilm MIC, XTT assay; assay type: cell-based, Candida albicans; details: for Minimum inhibitory concentration of 48 h Candida biofilms: 48 h C. albicans biofilms; for Biofilm MIC90: 24 h C. albicans biofilms, 24 h drug exposure, XTT
Method: (§1) For instance, we have previously shown the resistance of Candida biofilms against amphotericin and caspofungin. Therefore, next using standard biofilm assays we have established in our laboratory, we examined the effect of SM21 against Candida biofilms. In brief, Candida cells were grown in SDA medium at 37° C. for 18 h. Then a loopful of the yeast was inoculated into the yeast nitrogen base (YNB; Difco) medium supplemented with 50 mM glucose in a rotary shaker at 75 rpm. After overnight broth culture, the yeasts were harvested in the late exponential growth phase and washed twice with 20 ml of phosphate buffer saline (PBS; pH 7.2. 0.1 M) prior to use in the biofilm studies. Candida biofilms were developed according to a previously published protocol. In brief, washed yeast cells were resuspended in YNB supplemented with 100 mM glucose and adjusted to an optical density of 0.38 at 520 nm (1×10^7 cells/ml). The standard cell suspension was used immediately to develop biofilms on commercially available presterilized, polystyrene, 96-well plate (IWAKI, Tokyo, Japan). At first, 100 μl of standardized cell suspension (1×10^7 cells/ml) was pipetted into each well of a microtiter plate and incubated for 1.5 h at 37° C. in a shaker at 75 rpm to permit yeast adherence to the well surface (adherence phase). For controls, a well of each microtiter plate was handled in an identical fashion except that no Candida suspension was added. Following the adhesion phase, the cell suspensions were aspirated, and each well washed with 100 μl of PBS to remove loosely adherent cells. 200 μl of YNB with 100 mM glucose were then pipetted into each of the washed wells and the plates incubated at 37° C. in a shaker at 75 rpm for 24 or 48 h. After biofilm growth phase microscopic examination of the cultures were performed to rule out contamination. Then, the suspending medium was aspirated and biofilms were washed with 100 μl PBS to remove the nonadherent cells. The stock solutions were diluted twofold with RPMI 1640 supplemented with 2% glucose to obtain SM21 concentration from 100 to 0.2 μg/ml drug concentrations. In parallel, other antifungal agents such as caspofungin (100 to 0.1 μg/ml) and amphotericin B (240 μg/ml to 0.225 μg/ml) was also prepared as describe above. A total of 100 μl of drug solution was added to the microtiter plate containing Candida biofilms. Biofilms were then incubated at 37° C. for 24 h with the antifungals and afterwards metabolic activity of fungal cells was determined by the XTT [2,3-bis(2-methoxy-4-nitro-5-sulfophenyl)-2H-tetrazolium-5-carboxanilide sodium salt] assay (17, 28). Candida biofilm MIC90 was defined as the lowest drug concentration with 90% reduction in opacity compared with the drug free control. Each experiment was repeated three times with four replicates.

C. krusei biofilms = assay: Mono species Candida biofilm MIC, XTT assay; assay type: cell-based; details: 48 h C. krusei biofilms
Method: as §1

C. glabrata biofilms = assay: Mono species Candida biofilm MIC, XTT assay; assay type: cell-based; details: 48 h C. glabrata biofilms
Method: as §1

C. tropicalis = assay: Antifungal susceptibility (MIC/MFC), CLSI criteria; assay type: cell-based, Candida tropicalis; details: C. tropicalis ATCC; 0.5 McFarland inoculum (10^6 cells/ml)
Method: (§2) Antifungal activity of the small molecules was evaluated using USA standards, Clinical and Laboratory Standards Institute (CLSI) criteria. In brief, inocula from 24 h Candida cultures on Sabourauds's dextore agar were standardized to a turbidity equivalent of 0.5 McFarland standards at 520 nm with a spectrophotometer. The suspensions were further diluted in Rosewell Park Memorial Institute (RPMI) 1640 medium (Life technologies, New York, USA) to yield an inoculum concentration of approximately 0.5 1×10^3 to 2.5 1×10^3 cells/ml. Minimum inhibitory concentration (MIC) and minimum fungicidal concentration (MFC) assay was performed in 96-well plates (Iwaki, Tokyo, Japan) and each of the Candida species was exposed to a double dilution of SM21. Amphotericin B was used as a positive control. All the experiments were preformed three occasions with duplicates for all isolates. The plates were incubated at 35° C. for 48 h to evaluate MIC. In the case of Cryotococcus neoformans, reading were taken after 72 h. Aforementioned assay was performed for C. albicans ATCC 90028, C. albicans SC5314 and 10 C. albicans clinical isolates. Moreover, MIC/MFC determination was carried out for other fungal species such as C. glabrata, C. krusei, C. tropicalis, C. parapsilosis, C. neoformans, Aspergillus fumigates and Penicillium marneffei. […]

C. krusei = assay: Antifungal susceptibility (MIC/MFC), CLSI criteria; assay type: cell-based, Candida krusei; details: C. krusei ATCC; 0.5 McFarland inoculum (10^6 cells/ml)
Method: as §2

C. albicans [1] = assay: Antifungal susceptibility (MIC/MFC), CLSI criteria, 96-well double dilution; assay type: cell-based, Candida albicans; details: 0.5 McFarland inoculum (10^6 cells/ml)
Method: (§3) Antifungal activity of the small molecules was evaluated using USA standards, Clinical and Laboratory Standards Institute (CLSI) criteria. In brief, inocula from 24 h Candida cultures on Sabourauds's dextore agar were standardized to a turbidity equivalent of 0.5 McFarland standards at 520 nm with a spectrophotometer. The suspensions were further diluted in Rosewell Park Memorial Institute (RPMI) 1640 medium (Life technologies, New York, USA) to yield an inoculum concentration of approximately 0.5 1×10^3 to 2.5 1×10^3 cells/ml. Minimum inhibitory concentration (MIC) and minimum fungicidal concentration (MFC) assay was performed in 96-well plates (Iwaki, Tokyo, Japan) and each of the Candida species was exposed to a double dilution of SM21. Amphotericin B was used as a positive control. All the experiments were preformed three occasions with duplicates for all isolates. The plates were incubated at 35° C. for 48 h to evaluate MIC. In the case of Cryotococcus neoformans, reading were taken after 72 h. Aforementioned assay was performed for C. albicans ATCC 90028, C. albicans SC5314 and 10 C. albicans clinical isolates. Moreover, MIC/MFC determination was carried out for other fungal species such as C. glabrata, C. krusei, C. tropicalis, C. parapsilosis, C. neoformans, Aspergillus fumigates and Penicillium marneffei. […] Next using dose-dependent assay we tested that MIC/MFC of SM21 from 10^3 cells/ml to 10^7 cells/ml of C. albicans (Table 2). Each of the foregoing experiment was repeated on three different occasions.

C. parapsilosis = assay: Antifungal susceptibility (MIC/MFC), CLSI criteria; assay type: cell-based, Candida parapsilosis; details: C. parapsilosis ATCC; 0.5 McFarland inoculum (10^6 cells/ml)
Method: as §2

C. neoformans = assay: Antifungal susceptibility (MIC/MFC), CLSI criteria, reading after 72 h; assay type: cell-based, Cryptococcus neoformans; details: 0.5 McFarland inoculum (10^6 cells/ml)
Method: as §2

C. albicans [2] = assay: Dose-dependent assay of MIC/MFC at different cell densities; assay type: cell-based, Candida albicans; set-up: unit not given here
Method: as §3

resistant isolate T-1549 = assay: Antifungal activity compared with caspofungin and amphotericin B (FIG. 2, CLSI M44-A disc diffusion); assay type: cell-based, C. guilliermondii; details: resistant isolate T-1549 (FIG. 2C)
Description: (§4) Oral Biosciences laboratory has one of the largest collections of fungal isolates, particular that of Candida species in the world. In our previous studies, we have found multidrug resistant clinical isolates of Candida species against existing antifungals. In particular, some of these strains are resistant to best antifungal agents to date such as caspofungin, amphotericin B and fluconazole. Therefore, we performed antifungal susceptibility testing for SM21 against these drug resistant Candida isolates suing CLSI M27A brothmicrodultion assay and CLSI M44-A disc diffusion assay.

[3] = system: C. albicans SC5314 and C. albicans ATCC 90028; assay: as above; assay type: cell-based, Candida albicans
Description: as §4

C. glabrata = assay: Antifungal susceptibility (MIC/MFC), CLSI criteria; assay type: cell-based, Candida glabrata; details: C. glabrata ATCC; 0.5 McFarland inoculum (10^6 cells/ml)
Method: as §2

Penicillium marneffei = assay: Antifungal susceptibility (MIC/MFC), CLSI criteria; assay type: cell-based; details: 0.5 McFarland inoculum (10^6 cells/ml)
Method: as §3

Aspergillus fumigatus = assay: Antifungal susceptibility (MIC/MFC), CLSI criteria; assay type: cell-based; details: 0.5 McFarland inoculum (10^6 cells/ml)
Method: as §3

[4] = C. albicans ATCC 90028, CLSI quality control strain (FIG. 2B)

Nc1nc(=O)[nH]cc1F [5-fluorocytosine]
Minimum inhibitory concentration of 48 h Candida biofilms (C. albicans biofilms): 420 µg/mL
Minimum inhibitory concentration of 48 h Candida biofilms (C. krusei biofilms): 250 µg/mL
Minimum inhibitory concentration of 48 h Candida biofilms (C. glabrata biofilms): 420 µg/mL

C[C@@H]1[C@H](O)[C@@H](C)/C=C/C=C/C=C/C=C/C=C/C=C/C=C/[C@H](O[C@@H]2O[C@H](C)[C@@H](O)[C@H](N)[C@@H]2O)C[C@@H]2O[C@](O)(C[C@@H](O)C[C@@H](O)[C@H](O)CC[C@@H](O)C[C@@H](O)CC(=O)O[C@H]1C)C[C@H](O)[C@H]2C(=O)O [Amphotericin B, reference compound]
Susceptibility (MIC90) (C. tropicalis): 0.8 µg/mL
Susceptibility (MIC90) (C. krusei): 0.4 µg/mL
Biofilm MIC90 (C. albicans biofilms): 32 µg/mL
Minimum inhibitory concentration of 48 h Candida biofilms (C. albicans biofilms): 32 µg/mL
Susceptibility (MIC90) (C. albicans [1]; C. albicans ATCC 90028): 0.2 µg/mL
Susceptibility (MIC90) (C. albicans [1]; C. albicans CL1): 0.2 µg/mL
Susceptibility (MIC90) (C. albicans [1]; C. albicans CL2): 0.4 µg/mL
Susceptibility (MIC90) (C. albicans [1]; C. albicans CL3): 0.4 µg/mL
Susceptibility (MIC90) (C. albicans [1]; C. albicans CL4): 0.2 µg/mL
Susceptibility (MIC90) (C. albicans [1]; C. albicans CL5): 0.2 µg/mL
Susceptibility (MIC90) (C. albicans [1]; C. albicans CL6): 0.2 µg/mL
Susceptibility (MIC90) (C. albicans [1]; C. albicans CL7): 0.2 µg/mL
Susceptibility (MIC90) (C. albicans [1]; C. albicans CL8): 0.4 µg/mL
Susceptibility (MIC90) (C. albicans [1]; C. albicans CL9): 0.4 µg/mL
Susceptibility (MIC90) (C. albicans [1]; C. albicans CL10): 0.2 µg/mL
Susceptibility (MIC90) (C. albicans [1]; C. albicans SC5314): 0.2 µg/mL
Susceptibility (MIC90) (C. parapsilosis): 0.8 µg/mL
Susceptibility (MIC90) (C. neoformans): 0.4 µg/mL
MIC/MFC (C. albicans [2]; C. albicans 10^4 cells/ml): 0.2
MIC/MFC (C. albicans [2]; C. albicans 10^5 cells/ml): 0.2
MIC/MFC (C. albicans [2]; C. albicans 10^6 cells/ml): 0.2
MIC/MFC (C. albicans [2]; C. albicans 10^7 cells/ml): 0.8
Effectiveness against resistant isolate (resistant isolate T-1549): only SM21 was effective
Susceptibility of the strain to the agent [3, 4]: susceptible
Susceptibility of the strain to the agent ([3]; C. albicans SC5314 (FIG. 2A)): susceptible
Minimum inhibitory concentration of 48 h Candida biofilms (C. krusei biofilms): 32 µg/mL
Minimum inhibitory concentration of 48 h Candida biofilms (C. glabrata biofilms): 16 µg/mL
Susceptibility (MIC90) (C. glabrata): 0.4 µg/mL
Susceptibility (MIC90) (Penicillium marneffei): 0.05 µg/mL
Susceptibility (MIC90) (Aspergillus fumigatus): 1.56 µg/mL

CC[C@H](C)C[C@H](C)CCCCCCCCC(=O)N[C@H]1C[C@@H](O)[C@@H](NCCN)NC(=O)[C@@H]2[C@@H](O)CCN2C(=O)[C@H]([C@H](O)CCN)NC(=O)[C@H]([C@H](O)[C@@H](O)c2ccc(O)cc2)NC(=O)[C@@H]2C[C@@H](O)CN2C(=O)[C@H]([C@@H](C)O)NC1=O [Caspofungin]
Biofilm MIC90 (C. albicans biofilms): 50 µg/mL
Minimum inhibitory concentration of 48 h Candida biofilms (C. albicans biofilms): 100 µg/mL
Effectiveness against resistant isolate (resistant isolate T-1549): only SM21 was effective
Susceptibility of the strain to the agent [3, 4]: susceptible
Susceptibility of the strain to the agent ([3]; C. albicans SC5314 (FIG. 2A)): susceptible
Minimum inhibitory concentration of 48 h Candida biofilms (C. krusei biofilms): 100 µg/mL
Minimum inhibitory concentration of 48 h Candida biofilms (C. glabrata biofilms): 100 µg/mL

CC(=O)N1CCN(c2ccc(OCC3COC(Cn4ccnc4)(c4ccc(Cl)cc4Cl)O3)cc2)CC1 (stereo not shown) [Ketoconazole]
Minimum inhibitory concentration of 48 h Candida biofilms (C. albicans biofilms): 64 µg/mL
Minimum inhibitory concentration of 48 h Candida biofilms (C. krusei biofilms): 64 µg/mL
Minimum inhibitory concentration of 48 h Candida biofilms (C. glabrata biofilms): 64 µg/mL
